pKd: −log10 of the molar value. Values joined by “and” are separate entries in the source; they are usually repeats but may differ in a detail not shown here. Identical values can stand only once.
Assays:
SAP [1] = biological target: T1, SAP (Homo sapiens, UniProt P02743); test: Inhibition of binding of 125I radiolabelled SAP to influenza virus immobilized in microtitre plates; design: 5 μl of radiolabelled SAP in TN; from tissue; conditions: for inhibition at 0.2 µM: compound 200 nM; for inhibition at 0.2 µM / inhibition at 2 µM / inhibition at 20 µM / inhibition at 200 µM / inhibition at 2000 µM: read-out: Percent inhibition of binding of radiolabelled SAP to immobilized influenza virus; for inhibition at 2 µM: compound 2 μM; for inhibition at 20 µM: compound 20 μM; for inhibition at 200 µM: compound 200 μM; for inhibition at 2000 µM: compound 2 mM; for Inhibition of binding of SAP to immobilised influenza virus, in words: summary of Table 3
Procedure: A concentrated suspension of purified influenza virus A/Shanghai/24/90 at 10 mg protein per ml in PBS was diluted 1:50 in PBS and then dispensed to polystyrene microtitre plates at 50 μl volumes per well, and left overnight at 4° C. All wells were then emptied before blocking by addition to each well of 200 μl of 2% w/v BSA in PBS and incubation at room temperature for 1 h. All wells were then washed three times with 200 μl volumes of PBS containing 0.05% v/v Tween 20, prior to equilibration for 2 min with 0.01M Tris buffered 0.14M NaCl/0.002M CaCl2 at pH 8.0 (TC buffer), containing 4% w/v BSA and 0.05% v/v Tween 20 (TCBT buffer). The wells were then emptied before adding to each one the following reagents. […] For background, non-specific, non calcium dependent, binding in the presence of EDTA: 5 μl radiolabelled SAP in TN and 45 μl 0.01M Tris buffered 0.14M NaCl at pH 8.0 containing 11.1 mM EDTA, 4.4% w/v BSA and 0.06% w/v Tween 20 (TEBT buffer) to provide final concentrations of EDTA, 10 mM; BSA, 4%; Tween 20, 0.05%. […] All wells were then incubated at room temperature for 2 h before being washed three times with 200 μl volumes of TCBT, allowed to dry for 1 h at room temperature, and bound radiolabelled SAP was then counted. The compounds tested in the experiment shown here were the same as those specified in Example B above.
The capacity of the compounds tested to inhibit binding of SAP to the immobilised influenza virus is expressed as the percentage by which SAP binding was reduced compared to binding in the absence of any inhibitor (Table 3).

SAP [2] = biological target: T1, SAP; test: Isothermal calorimetry: dissociation constants between SAP and compounds; type: binding; conditions: for pKd: replicate measurements, read-out: Kd in micromoles per liter (replicate measurements)
Text: Surface plasmon resonance (SPR) is a low throughput but powerfully informative method to identify compounds that are bound by, or themselves bind to SAP, either in a calcium dependent fashion or independently of calcium, for the purposes of the present invention. For example, low molecular weight compounds that inhibit binding of SAP to its macromolecular ligands, including target ligands relevant to the present invention, can be detected by their effect on the signal generated by fluid phase SAP binding to ligand immobilised on the solid phase (Example A). Furthermore, when SAP itself is immobilised on the solid phase in an SPR instrument, the interaction with it of test molecules provided in the fluid phase generates a signal that can be detected and quantified. Purified SAP immobilized within an SPR instrument gives a quantifiable signal when it is exposed to another molecule that forms a complex with the SAP, and this is distinct from the absence of such a signal if no complex is formed. […] Another low throughput but powerful direct method is isothermal calorimetry that measures the heat of interaction in solution between SAP and test compounds according to the present invention. The binding affinity can be measured precisely as a guide to potential efficacy. Typical results by this method for the dissociation constants, Kd, between SAP and various compounds are as follows: […]

SAP [3] = biological target: T1, SAP; test: Inhibition of binding of 125I radiolabelled SAP to Neisseria meningitidis immobilized in microtitre plates; design: 5 μl of radiolabelled SAP in TN; from tissue; conditions: for inhibition at 0.2 µM: compound 200 nM; for inhibition at 0.2 µM / inhibition at 2 µM / inhibition at 20 µM / inhibition at 200 µM / inhibition at 2000 µM: read-out: Percent inhibition of binding of radiolabelled SAP to immobilized Neisseria meningitidis; for inhibition at 2 µM: compound 2 μM; for inhibition at 20 µM: compound 20 μM; for inhibition at 200 µM: compound 200 μM; for inhibition at 2000 µM: compound 2 mM; for Inhibition of binding of SAP to meningococci, in words: summary of Table 1
Procedure: A suspension of heat killed Neisseria meningitidis at 1×10^8 organisms per ml in PBS was dispensed to polystyrene microtitre plates at 50 μl volumes per well, and left overnight at 4° C. All wells were then washed three times with 200 μl volumes of PBS containing 0.05% v/v Tween 20, prior to equilibration for 2 min with 0.01M Tris buffered 0.14M NaCl/0.002M CaCl2 at pH 8.0 (TC buffer), containing 4% w/v BSA and 0.05%/v Tween 20 (TCBT buffer). The wells were then emptied before adding to each one the following reagents. […] For background, non-specific, non calcium dependent, binding in the presence of EDTA: 5 μl radiolabelled SAP in TN and 45 μl 0.01M Tris buffered 0.14M NaCl at pH 8.0 containing 11.1 mM EDTA, 4.4% w/v BSA and 0.06% w/v Tween 20 (TEBT buffer) to provide final concentrations of EDTA, 10 mM; BSA, 4%; Tween 20, 0.05%. […] All wells were then incubated at room temperature for 2 h before being washed three times with 200 μl volumes of TCBT, allowed to dry for 1 h at room temperature, and bound radiolabelled SAP was then counted.
The capacity of the compounds tested to inhibit binding of SAP to meningococci is expressed as the percentage by which SAP binding was reduced compared to binding in the absence of any inhibitor (Table 1).

SAP [4] = biological target: T1, SAP; test: Inhibition of binding of 125I radiolabelled SAP to native long chromatin immobilized in microtitre plates; design: 5 μl of radiolabelled SAP in TN; from tissue; conditions: for Inhibition of binding of SAP to chromatin, in words: Table 2; for inhibition at 0.2 µM: compound 200 nM; for inhibition at 0.2 µM / inhibition at 2 µM / inhibition at 20 µM / inhibition at 200 µM / inhibition at 2000 µM: read-out: Percent inhibition of binding of radiolabelled SAP to immobilized native long chromatin; for inhibition at 2 µM: compound 2 μM; for inhibition at 20 µM: compound 20 μM; for inhibition at 200 µM: compound 200 μM
SAP [5] = biological target: T1, SAP; test: Surface plasmon resonance: calcium dependent binding of SAP to immobilised synthetic Aβ-42 amyloid fibrils
Text: Surface plasmon resonance (SPR) is a low throughput but powerfully informative method to identify compounds that are bound by, or themselves bind to SAP, either in a calcium dependent fashion or independently of calcium, for the purposes of the present invention. For example, low molecular weight compounds that inhibit binding of SAP to its macromolecular ligands, including target ligands relevant to the present invention, can be detected by their effect on the signal generated by fluid phase SAP binding to ligand immobilised on the solid phase (Example A). Furthermore, when SAP itself is immobilised on the solid phase in an SPR instrument, the interaction with it of test molecules provided in the fluid phase generates a signal that can be detected and quantified. Purified SAP immobilized within an SPR instrument gives a quantifiable signal when it is exposed to another molecule that forms a complex with the SAP, and this is distinct from the absence of such a signal if no complex is formed. […] Another low throughput but powerful direct method is isothermal calorimetry that measures the heat of interaction in solution between SAP and test compounds according to the present invention. The binding affinity can be measured precisely as a guide to potential efficacy. Typical results by this method for the dissociation constants, Kd, between SAP and various compounds are as follows:
Synthetic Aβ-42 amyloid fibrils (28) were covalently immobilised on the reactant surface of the Fisons IAsys surface plasmon resonance instrument, and then exposed to isolated SAP (32) in solution in Tris-buffered physiological saline in the absence of calcium (shown as TN/N in the Figures). No binding of SAP occurred and thus no signal was generated. Introduction of calcium allowed the SAP to bind specifically to the immobilised amyloid fibrils, generating a readily detectable signal (FIG. 1). […]

T1 sequence (P02743 20-223): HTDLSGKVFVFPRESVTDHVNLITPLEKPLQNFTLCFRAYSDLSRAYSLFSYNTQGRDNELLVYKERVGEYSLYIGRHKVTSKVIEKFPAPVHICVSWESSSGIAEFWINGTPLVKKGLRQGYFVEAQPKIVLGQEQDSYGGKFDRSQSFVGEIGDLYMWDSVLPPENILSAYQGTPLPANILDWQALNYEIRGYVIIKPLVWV

Compound	inhibition at 0.2 µM (SAP [1]) [%]	inhibition at 2 µM (SAP [1]) [%]	inhibition at 20 µM (SAP [1]) [%]	inhibition at 200 µM (SAP [1]) [%]	inhibition at 2000 µM (SAP [1]) [%]	Inhibition of binding of SAP to immobilised influenza virus, in words (SAP [1])	pKd (SAP [2])	inhibition at 0.2 µM (SAP [3]) [%]	inhibition at 2 µM (SAP [3]) [%]	inhibition at 20 µM (SAP [3]) [%]	inhibition at 200 µM (SAP [3]) [%]	inhibition at 2000 µM (SAP [3]) [%]	Inhibition of binding of SAP to meningococci, in words (SAP [3])	Inhibition of binding of SAP to chromatin, in words (SAP [4])	inhibition at 0.2 µM (SAP [4]) [%]	inhibition at 2 µM (SAP [4]) [%]	inhibition at 20 µM (SAP [4]) [%]	inhibition at 200 µM (SAP [4]) [%]	inhibition at 2000 µM (SAP [4]; compound 2 mM) [%]	other results
NCCOP(=O)(O)O [Phosphoethanolamine, reference compound]	1	8	42	51	69	inhibition at high concentration, but only modest effects when diluted	4.44 and 4.57 and 4.32	7	18	32	41	95	inhibition at high concentration, but only modest effects when diluted	inhibition at high concentration, but only modest effects when diluted	3	9	36	59	94	–
CC(=O)N1CCC[C@@H]1C(=O)O [N-acetyl-D-proline]	–	–	–	–	–	–	4.80 and 4.64 and 4.77	–	–	–	–	–	–	–	–	–	–	–	–	–
O=C(O)[C@H]1CCCN1C(=O)COc1ccc(OCC(=O)N2CCC[C@@H]2C(=O)O)cc1 [Ro-64-2856, (R)-1-[[4-[2-[(R)-2-Carboxy-pyrrolidin-1-yl]-2-oxo-ethoxy]-phenoxy]-acetyl]-pyrrolidine-2-carboxylic acid]	3	77	82	84	87	–	7.72 and 7.70	0	65	74	65	100	–	–	1	36	56	75	91	–
C[N+](C)(C)CCOP(=O)([O-])O [Phosphocholine, reference compound]	–	–	5	5	–	virtually no effect	–	–	–	4	–	24	virtually no effect	virtually no effect	2	0	0	3	–	Kd in micromoles per liter (replicate measurements) (SAP [2]): No binding; inhibition at 2000 µM (SAP [4]): 19%
O=C(O)[C@H]1CCCN1C(=O)COc1cccc2c(OCC(=O)N3CCC[C@@H]3C(=O)O)cccc12 [Ro-64-5445, (R)-1-[[5-[2-[(R)-2-Carboxy-pyrrolidin-1-yl]-2-oxo-ethoxy]-naphthalen-1-yloxy]-acetyl]-pyrrolidine-2-carboxylic acid]	23	–	64	76	80	–	–	30	72	81	100	100	–	–	12	51	74	82	96	–
C[C@H](CS)C(=O)N1CCC[C@@H]1C(=O)O [Ro-15-3479, 1-[(S)-3-Mercapto-2-methylpropionyl]-D-proline]	12	30	40	51	–	–	–	3	42	50	54	–	–	–	–	–	–	–	–	Effect on SPR signal reflecting ligand binding by SAP (SAP [5]; 50 μmol/l, added after SAP had bound, regenerated surface (FIG. 3)): completely reversed; SPR signal on addition of calcium after SAP and compound (SAP [5]; 100 μmol/l, added before calcium (FIG. 2)): no signal; Effect on binding of SAP to immobilised amyloid fibrils and the corresponding SPR signal (SAP [5]; 500 μmol/l in TC buffer, added after SAP had bound (FIG. 1)): completely reversed the binding of SAP
O=C(O)CN(CCN(CC(=O)O)CC(=O)O)CC(=O)O [EDTA, reference compound]	–	–	–	–	–	All binding was inhibited	–	–	–	–	–	–	All binding was inhibited	All binding was inhibited	–	–	–	–	–	Percent inhibition of binding of radiolabelled SAP to immobilized Neisseria meningitidis (SAP [3]; EDTA 10 mM (printed in the 2 mM column)): 100%

— patent US7659299B2, “Compounds inhibiting the binding of sap for treating osteoarthritis” (Pentraxin Therapeutics Limited, priority 2003, dated 2010)
